IC50 data for six compounds are collected here from ChEMBL document CHEMBL5532721, “Novel KRAS Inhibitors for Treating Non-Small-Cell Lung Cancer” (ACS Med Chem Lett, 2024).

Each structure is given as a SMILES string.

The nature of assay [1]: Inhibition of recombinant GDP-loaded KRAS G12D mutant/recombinant SOS (unknown origin) interaction preincubated for 20 mins followed by SOS addition and measured after 30 mins by HTRF assay. The arrangement: species or system Homo sapiens.
A short description of assay [2]: Inhibition of recombinant GMPPNP-loaded KRAS G12D mutant/recombinant GST-tagged RAF1 RBD (unknown origin) interaction preincubated for 20 mins followed by RAF1 RBD addition and measured after 3 hrs by HTRF assay. The arrangement: species or system Homo sapiens.

Regarding `C#Cc1c(F)ccc2cc(O)cc(-c3ncc4c(N5CCCC(O)(C(F)(F)F)C5)nc(OC[C@]56CCC[C@H]5N(C)CCC6)nc4c3F)c12` (some centres not stated), the IC50 in assay [1] came to 2 nM; in assay [2] it was 3 nM.

Consider `C#Cc1c(F)ccc2cc(O)cc(-c3ncc4c(N5CCCOCC5)nc(OC[C@]56CCC[C@H]5N(CC)CCC6)nc4c3F)c12`, for which the IC50 in assay [1] came out at 2 nM; in assay [2], 6 nM.

For the compound `C#Cc1c(F)ccc2cc(O)cc(-c3ncc4c(N5CCOCC(CO)C5)nc(OC[C@]56CCC[C@H]5N(C)CCC6)nc4c3F)c12` (some centres not stated), the IC50 was determined as 5 nM in assay [1] and 3 nM in assay [2].

For the compound `C#Cc1c(F)ccc2cc(O)cc(-c3ncc4c(N5CCCC(C#N)C5)nc(OC[C@@]56CCCN5C[C@H](F)C6)nc4c3F)c12` (some centres not stated), the IC50 in assay [1] and in assay [2] was 2 nM each time.

For `C#Cc1c(F)ccc2cc(O)cc(-c3ncc4c(N5CCOCC(CC#N)C5)nc(OC[C@]56CCC[C@H]5N(C)CCC6)nc4c3F)c12` (some centres not stated), the IC50 in assay [1] and in assay [2] was 2 nM in each case.

On to `C#Cc1c(F)ccc2cc(O)cc(-c3ccc4c(N5C[C@@H]6C[C@H]5C(=O)N6)nc(OC[C@]56CCC[C@H]5N(C)CCC6)nc4c3F)c12`, for which the results for the IC50 in assay [1] and in assay [2] were 6 nM and 3 nM, respectively.
